Results published in patent US20190343749A1, “PROTECTANTS” (Lincoln Manufacturing Inc., priority 2018, published 2019).

Tested on: mixture of bacteria
Assay: CTFA Preservative Challenge Test on a shampoo
Assay type: cell-based
Details: for Mixed Bacteria Day 7 Count / Mixed Bacteria Day 14 Count: shampoo containing the sample, initial count 4×10^6 cfu/mL; for kill reduction: shampoo, mixed bacteria
Description: The CTFA Preservative Challenge Test was performed on a shampoo containing the samples below against a mixture of bacteria having an initial count of 4×10^6 cfu/mL. The shampoos inoculated with bacteria were allowed to stand for 7 or 14 days. The samples were evaluated for surviving organisms on day 7 or day 14 for bacteria-innoculated shampoos.
E. Kull et al., “Mixtures of Quaternary Ammonium Compounds and Long-chain Fatty Acids as Antifungal Agents”, Applied Microbiology, 9:538-541 (1961). The synergism value (QA/Qa+QB/Qb) was determined. […] Qb is the concentration of pircotine olamine alone (in percent by weight) required to yield 100% retardation of the bacteria. When the value of (QA/Qa +QB/Qb) is less than one, the mixture is synergistic. Values for (QA/Qa+QB/Qb) of 1 and greater represent an additive effect and an antagonistic effect, respectively.

Row | SMILES | concentration alone required to yield 100% retardation of the bacteria (Qa, Qb) (percent by weight in shampoo, plate count <10 cfu/g after 14 days) [%] | Mixed Bacteria Day 7 Count (day 7) | Mixed Bacteria Day 14 Count (day 14) | kill reduction (day 7) | kill reduction (day 14)
1 | Cc1cc(CC(C)CC(C)(C)C)n(O)c(=O)c1.NCCO (centres unmarked) [0.1% Piroctone olamine, piroctone olamine] | > 0.1 | 1.2 × 10^5 cfu/mL | 1.3 × 10^5 cfu/mL | (<97% kill reduction) | (<97% kill reduction)
2 | COc1ccc(C(=O)[O-])cc1.[Na+] [1% sodium p-anisate, sodium p-anisate] |  | 2.3 × 10^4 cfu/mL |  | (<99% kill reduction) | 
3 | CCCCCCCCCCCCCCCC[n+]1ccccc1 [1% cetylpyridinium chloride, cetylpyridinium chloride] |  |  | 7 × 10^3 cfu/mL |  | 
